Measurements from patent US7507704B1, “Receptor modulated cancer protocols” (priority 2002, dated 2009).

What was measured:
[1] = rifampicin co-administered with erlotinib; cited from earlier work
[2] = in vivo; cited from earlier work
Metastatic Breast Cancer [3] = assay: Skipper log cell kill model projection for trastuzumab regimens (antagonistic scenario); conditions: estimated from AC group, 23%÷68%
Metastatic Breast Cancer [4] = conditions: cytotoxics q 21 days × 6, trastuzumab q week, actual Phase III data; cited from earlier work

SMILES: CO[C@H]1/C=C/O[C@@]2(C)Oc3c(C)c(O)c4c(O)c(c(/C=N/N5CCN(C)CC5)c(O)c4c3C2=O)NC(=O)/C(C)=C\C=C\[C@H](C)[C@H](O)[C@@H](C)[C@@H](O)[C@@H](C)[C@H](OC(C)=O)[C@@H]1C [Rifampicin]
- increased clearance of erlotinib [1]: 3 fold

SMILES: CC/C(=C(\c1ccccc1)c1ccc(OCCN(C)C)cc1)c1ccccc1 [Tamoxifen]
- plasma concentration half life [2]: 120 to 170 h

SMILES: O=P1(N(CCCl)CCCl)NCCCO1 (stereo not shown) [C, cyclophosphamide]
- "stand alone" tumor kill rate (Metastatic Breast Cancer [3]): 34%

SMILES: CC(=O)O[C@H]1C(=O)[C@@]2(C)[C@H]([C@H](OC(=O)c3ccccc3)[C@]3(O)C[C@H](OC(=O)[C@H](O)[C@@H](NC(=O)c4ccccc4)c4ccccc4)C(C)=C1C3(C)C)[C@]1(OC(C)=O)CO[C@@H]1C[C@@H]2O [Paclitaxel]
- Median Survival (Metastatic Breast Cancer [4]): 18.4 months
